# Tests used:
# [1] = system: islets; experiment: Cytotoxicity assay (calcein-AM / propidium iodide) in islets; assay type: cell-based; settings: 1 hr incubation, n = 28 islets from four animals
# Description: Islets were incubated with either DMSO or JB253 for 1 hr before staining with 3 µM of calcein-AM (live) and 2.5 µM of propidium iodide (dead). Absorbance/emission was detected at 491/525 nm and 561/620 nm for calcein and PI, respectively. The area of dead:live cells was calculated as a unitary ratio and the observer blinded to treatment identity.
# [2] = system: human islets; experiment: Calcium imaging in isolated human islets of Langerhans; assay type: cell-based; settings: human islets from three donors, 440 nm
# Description: Human islets were isolated from deceased heart-beating donors (n = 3) at transplantation facilities in Pisa and Edmonton with the relevant national and local ethical permissions, including consent from next of kin where required, and cultured in RPMI supplemented with 5.5 mM D-glucose, 10% foetal calf serum (FCS), 100 U penicillin, 100 µg streptomycin and 0.25/µl fungizone (37 °C, 5% CO2). All studies involving human tissue were approved by the National Research Ethics Committee (NRES) London (Fulham), REC # 07/H0711/114.
# Islets were loaded for 30-45 min in fluo2-AM (10 µM) or for 2-5 min with X-Rhod 1 (5 µM) diluted with a mixture of DMSO (0.01%, wt/vol) and pluronic acid (0.001%, wt/vol; all Invitrogen) in a bicarbonate buffer containing in mM: 120 NaCl, 4.8 KCl, 1.25 NaH2PO4, 24 NaHCO3, 2.5 CaCl2, 1.2 MgCl2 and 5 D-glucose. fMCI was performed using a Zeiss Axiovert M200 fitted with a Nipkow spinning-disk head (Yokogawa CSU-10) and a 10x/0.3NA objective adjusted for chromatic aberration (EC Plan-Neofluar, Zeiss). Pulsed excitation (frequency = 0.5 Hz; exposure = 263 ms) was delivered at 491 nm and emitted signals recorded at 500-550 nm with a back-illuminated 16-bit EM-CCD camera (ImageEM 9100-13; Hamamatsu). During recording, islets were maintained at 35-36 °C in the presence of 50 µM JB253 using a custom-manufactured perfusion and heating system (Digital Pixel). Drugs were introduced through the perfusion system at the indicated time points and concentrations. Violet light was delivered by a 405 ± 5 nm laser coupled to the side port of the microscope and configured to fill the back of the objective with light using an Optospot (Cairn Research). Blue light was delivered using 440 ± 5 nm and 491 ± 5 nm diode lasers controlled by a laser merge module (Spectral Applied Research) to allow simultaneous exposure and acquisition. […] Signals were normalized using F/Fmin where F is fluorescence at a given timepoint and Fmin is minimum fluorescence.
structure (smiles),measurement,setting,value
"CCN(CC)c1ccc(/N=N/c2ccc(S(=O)(=O)NC(=O)NC3CCCCC3)cc2)cc1 [JB253, (E)-N-(cyclohexylcarbamoyl)-4-((4-(diethylamino)phenyl)diazenyl)benzenesulfonamide]","cytotoxicity to islets (necrosis indices, cell death versus DMSO-alone)",[1],did not appear to be cytotoxic
same,X-Rhod1-loaded cells responding with Ca^2+ rises,[2],~62%

# Source: EP3009422A1, “Photo-switchable sulfonylureas and their uses” (Ludwig-Maximilians-Universität München, priority 2014, dated 2016)
